# According to article PMC9069370, “Integrated Design of a Membrane‐Lytic Peptide‐Based Intravenous Nanotherapeutic Suppresses Triple‐Negative Breast Cancer” (Advanced Science, 2022):
# Peptide text beside a SMILES is read from it.
# Experiments:
# [1] = Tryptophan fluorescent binding assay; settings: tryptophan fluorescence; 50 µM peptide, lipid titrated 0-5000 µM; phosphate buffered saline 1X, pH 7.4; values as lipid per peptide
# How it was run: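 Peptides at 50 µM were incubated for 1 h with increasing amounts of 3:1 POPC:POPG unilamellar vesicles in 1X phosphate buffered saline, pH 7.4. Tryptophan emission (300–450 nm, excitation 280 nm) was recorded on a Cytation 5 multi-mode reader. The lipid concentration giving 50 % peptide binding was determined and reported as a lipid-to-peptide ratio.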
# HEK293T = assay: cells; assay type: cell-based, human; settings: 72 h
# U2OS = assay type: cell-based, human; settings: 72 h
# MCF‐10A = assay: cells; assay type: cell-based, human; settings: 72 h
# Description: (§1) […], and MCF-10A cells were maintained in MEGM with supplements and growth factors bovine pituitary extract, hydrocortisone, human epidermal growth factor, insulin, and gentamicin/amphotericin-B.
# HMLER‐shEcad = assay: cells; assay type: cell-based, human; settings: 72 h
# Description: as §1
# HMLER = assay: cells; assay type: cell-based, human; settings: 72 h
# Description: as §1
# [2] = ANTS/DPX liposome leakage assay; settings: 0.5 mM vesicles, peptide 0-20 µM, 3 h incubation, lipid per peptide; for Peptide Concentration-induced 50 % ANTS/DPX leakage at pH 4.8 (L/P), 3POPC/1POPG Vesicle / Peptide Concentration-induced 50 % ANTS/DPX leakage at pH 4.8 (L/P), POPC Vesicle: HCl-adjusted PBS 1X pH 4.8; for Peptide Concentration-induced 50 % ANTS/DPX leakage at pH 7.4 (L/P), 3POPC/1POPG Vesicle / Peptide Concentration-induced 50 % ANTS/DPX leakage at pH 7.4 (L/P), POPC Vesicle: PBS 1X pH 7.4, high ratio = more potent
# How it was run: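 The value is the lipid-to-peptide ratio giving 50% ANTS/DPX release, with fluorescence (350/510 nm) read after 3 h and scaled to 10% Triton as full leakage. Peptides were titrated into 0.5 mM LUVs of POPC or 3POPC/1POPG (0.1 µm, free dye removed by gel filtration) in PBS at pH 7.4 or 4.8.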
SMILES,"Lipid Concentration-induced 50% Peptide Binding (L/P), 3POPC/1POPG Vesicle [1] [L/P]","Lipid Concentration-induced 50% Peptide Binding (L/P), POPC Vesicle [1] [L/P]",IC50 (U2OS) [µM],IC50 (MCF‐10A) [µM],IC50 (HMLER‐shEcad) [µM],IC50 (HMLER) [µM],IC50 (HEK293T) [µM],"Peptide Concentration-induced 50 % ANTS/DPX leakage at pH 4.8 (L/P), 3POPC/1POPG Vesicle [2] [L/P]","Peptide Concentration-induced 50 % ANTS/DPX leakage at pH 4.8 (L/P), POPC Vesicle [2] [L/P]","Peptide Concentration-induced 50 % ANTS/DPX leakage at pH 7.4 (L/P), 3POPC/1POPG Vesicle [2] [L/P]","Peptide Concentration-induced 50 % ANTS/DPX leakage at pH 7.4 (L/P), POPC Vesicle [2] [L/P]"
CC(C)C[C@H](NC(=O)CN)C(=O)N[C@@H](CC(C)C)C(=O)N[C@@H](CCCCN)C(=O)N[C@@H](CC(C)C)C(=O)N[C@@H](CC(C)C)C(=O)N[C@@H](Cc1c[nH]cn1)C(=O)N[C@@H](CC(C)C)C(=O)N[C@@H](CC(C)C)C(=O)N[C@@H](CC(C)C)C(=O)N[C@@H](CCC(=O)O)C(=O)N[C@@H](C)C(=O)N[C@@H](C)C(=O)NCC(=O)N[C@@H](Cc1c[nH]c2ccccc12)C(N)=O [KHE] (H-GLLKLLHLLLEAAGW-NH2),0.71,0.88,53 ± 2.83,20.9 ± 5.87,2.92 ± 0.17,3.7 ± 0.14,26 ± 2.83,156,183,188,981
CC(C)C[C@H](NC(=O)CN)C(=O)N[C@@H](CC(C)C)C(=O)N[C@@H](CCCCN)C(=O)N[C@@H](CC(C)C)C(=O)N[C@@H](CC(C)C)C(=O)N[C@@H](Cc1c[nH]cn1)C(=O)N[C@@H](CC(C)C)C(=O)N[C@@H](CC(C)C)C(=O)N[C@@H](CC(C)C)C(=O)N[C@@H](Cc1c[nH]cn1)C(=O)N[C@@H](C)C(=O)N[C@@H](C)C(=O)NCC(=O)N[C@@H](Cc1c[nH]c2ccccc12)C(N)=O [KHH] (H-GLLKLLHLLLHAAGW-NH2),0.94,3.50,39.8 ± 5.3,10.3 ± 0.49,4.45 ± 0.49,5.2 ± 0.71,7.75 ± 0.78,48,227,329,1153
CC(C)C[C@H](NC(=O)CN)C(=O)N[C@@H](CC(C)C)C(=O)N[C@@H](CCCCN)C(=O)N[C@@H](CC(C)C)C(=O)N[C@@H](CC(C)C)C(=O)N[C@@H](Cc1c[nH]cn1)C(=O)N[C@@H](CC(C)C)C(=O)N[C@@H](CC(C)C)C(=O)N[C@@H](CC(C)C)C(=O)N[C@@H](CCCCN)C(=O)N[C@@H](C)C(=O)N[C@@H](C)C(=O)NCC(=O)N[C@@H](Cc1c[nH]c2ccccc12)C(N)=O [KHK] (H-GLLKLLHLLLKAAGW-NH2),0.38,0.17,12.9 ± 1.24,1.81 ± 0.05,1.4 ± 0.14,2.59 ± 0.92,3.55 ± 0.78,53,140,193,1153

# More lines, in order of falling IC50 (U2OS), values ahead:
"Lipid Concentration-induced 50% Peptide Binding (L/P), 3POPC/1POPG Vesicle [1] [L/P]","Lipid Concentration-induced 50% Peptide Binding (L/P), POPC Vesicle [1] [L/P]",IC50 (U2OS) [µM],IC50 (MCF‐10A) [µM],IC50 (HMLER‐shEcad) [µM],IC50 (HMLER) [µM],SMILES,IC50 (HEK293T) [µM],"Peptide Concentration-induced 50 % ANTS/DPX leakage at pH 4.8 (L/P), 3POPC/1POPG Vesicle [2] [L/P]","Peptide Concentration-induced 50 % ANTS/DPX leakage at pH 4.8 (L/P), POPC Vesicle [2] [L/P]","Peptide Concentration-induced 50 % ANTS/DPX leakage at pH 7.4 (L/P), 3POPC/1POPG Vesicle [2] [L/P]","Peptide Concentration-induced 50 % ANTS/DPX leakage at pH 7.4 (L/P), POPC Vesicle [2] [L/P]"
0.44,0.48,12.8 ± 1.2,2.9 ± 0.57,1.7,2.05 ± 0.64,CC(C)C[C@H](NC(=O)CN)C(=O)N[C@@H](CC(C)C)C(=O)N[C@@H](CCCCN)C(=O)N[C@@H](CC(C)C)C(=O)N[C@@H](CC(C)C)C(=O)N[C@@H](CCCCN)C(=O)N[C@@H](CC(C)C)C(=O)N[C@@H](CC(C)C)C(=O)N[C@@H](CC(C)C)C(=O)N[C@@H](CCC(=O)O)C(=O)N[C@@H](C)C(=O)N[C@@H](C)C(=O)NCC(=O)N[C@@H](Cc1c[nH]c2ccccc12)C(N)=O [KKE] (H-GLLKLLKLLLEAAGW-NH2),4.4 ± 0.14,131,143,346,1133
0.50,0.47,8.15 ± 0.49,1.55 ± 0.07,1.35 ± 0.07,1.6 ± 0.14,CC(C)C[C@H](NC(=O)CN)C(=O)N[C@@H](CC(C)C)C(=O)N[C@@H](CCCCN)C(=O)N[C@@H](CC(C)C)C(=O)N[C@@H](CC(C)C)C(=O)N[C@@H](CCC(=O)O)C(=O)N[C@@H](CC(C)C)C(=O)N[C@@H](CC(C)C)C(=O)N[C@@H](CC(C)C)C(=O)N[C@@H](CCCCN)C(=O)N[C@@H](C)C(=O)N[C@@H](C)C(=O)NCC(=O)N[C@@H](Cc1c[nH]c2ccccc12)C(N)=O [KEK] (H-GLLKLLELLLKAAGW-NH2),3.2 ± 0.14,126,110,438,1173
